Several values for one entry are separate records, joined by “and”; a condition that tells them apart may be missing. Identical values can stand only once.
Experiment: molar heat capacity at constant pressure
Settings: 101.33 kPa

CCCCc1ccc(C(=O)Oc2ccc(C#N)c(F)c2)cc1 [4-cyano-3-fluorophenyl 4-butylbenzoate]
Settings	molar heat capacity at constant pressure
61.92 K, Crystal 1, Small (less than 1 g) adiabatic calorimetry	106.31 J/K/mol
63.2 K, Crystal 1, Small (less than 1 g) adiabatic calorimetry	108.1 J/K/mol
63.41 K, Crystal 1, Small (less than 1 g) adiabatic calorimetry	108.62 J/K/mol
63.57 K, Crystal 2, Small (less than 1 g) adiabatic calorimetry	113.15 J/K/mol
64.91 K, Crystal 1, Small (less than 1 g) adiabatic calorimetry	110.74 J/K/mol
65.24 K, Crystal 2, Small (less than 1 g) adiabatic calorimetry	115.68 J/K/mol
65.3 K, Crystal 1, Small (less than 1 g) adiabatic calorimetry	111.15 J/K/mol
66.41 K, Crystal 1, Small (less than 1 g) adiabatic calorimetry	112.9 J/K/mol
66.93 K, Crystal 2, Small (less than 1 g) adiabatic calorimetry	118.1 J/K/mol
67.38 K, Crystal 1, Small (less than 1 g) adiabatic calorimetry	114.12 J/K/mol
67.91 K, Crystal 1, Small (less than 1 g) adiabatic calorimetry	115.02 J/K/mol
68.62 K, Crystal 2, Small (less than 1 g) adiabatic calorimetry	120.58 J/K/mol
69.41 K, Crystal 1, Small (less than 1 g) adiabatic calorimetry	117.19 J/K/mol
69.46 K, Crystal 1, Small (less than 1 g) adiabatic calorimetry	117 J/K/mol
70 K, Crystal 1, Vacuum adiabatic calorimetry	117.76 J/K/mol
70 K, Crystal 2, Vacuum adiabatic calorimetry	122.57 J/K/mol
70.32 K, Crystal 2, Small (less than 1 g) adiabatic calorimetry	123.03 J/K/mol
70.92 K, Crystal 1, Small (less than 1 g) adiabatic calorimetry	119.27 J/K/mol
71.53 K, Crystal 1, Small (less than 1 g) adiabatic calorimetry	119.9 J/K/mol
72.11 K, Crystal 2, Small (less than 1 g) adiabatic calorimetry	125.5 J/K/mol
72.44 K, Crystal 1, Small (less than 1 g) adiabatic calorimetry	121.32 J/K/mol
73.59 K, Crystal 1, Small (less than 1 g) adiabatic calorimetry	122.75 J/K/mol
73.96 K, Crystal 1, Small (less than 1 g) adiabatic calorimetry	123.47 J/K/mol
74.05 K, Crystal 2, Small (less than 1 g) adiabatic calorimetry	128.27 J/K/mol
75.49 K, Crystal 1, Small (less than 1 g) adiabatic calorimetry	125.48 J/K/mol
75.66 K, Crystal 1, Small (less than 1 g) adiabatic calorimetry	125.55 J/K/mol
76.08 K, Crystal 2, Small (less than 1 g) adiabatic calorimetry	131.11 J/K/mol
77.02 K, Crystal 1, Small (less than 1 g) adiabatic calorimetry	127.52 J/K/mol
77.72 K, Crystal 1, Small (less than 1 g) adiabatic calorimetry	128.25 J/K/mol
78.1 K, Crystal 2, Small (less than 1 g) adiabatic calorimetry	133.74 J/K/mol
78.56 K, Crystal 1, Small (less than 1 g) adiabatic calorimetry	129.55 J/K/mol
79.79 K, Crystal 1, Small (less than 1 g) adiabatic calorimetry	130.94 J/K/mol
80 K, Crystal 1, Vacuum adiabatic calorimetry	131.22 J/K/mol
80 K, Crystal 2, Vacuum adiabatic calorimetry	136.34 J/K/mol
80.1 K, Crystal 1, Small (less than 1 g) adiabatic calorimetry	131.58 J/K/mol
80.14 K, Crystal 2, Small (less than 1 g) adiabatic calorimetry	136.53 J/K/mol
81.65 K, Crystal 1, Small (less than 1 g) adiabatic calorimetry	133.56 J/K/mol
81.86 K, Crystal 1, Small (less than 1 g) adiabatic calorimetry	133.65 J/K/mol
82.17 K, Crystal 2, Small (less than 1 g) adiabatic calorimetry	139.24 J/K/mol
83.21 K, Crystal 1, Small (less than 1 g) adiabatic calorimetry	135.55 J/K/mol
83.93 K, Crystal 1, Small (less than 1 g) adiabatic calorimetry	136.28 J/K/mol
84.22 K, Crystal 2, Small (less than 1 g) adiabatic calorimetry	141.95 J/K/mol
84.77 K, Crystal 1, Small (less than 1 g) adiabatic calorimetry	137.59 J/K/mol
86 K, Crystal 1, Small (less than 1 g) adiabatic calorimetry	138.9 J/K/mol
86.27 K, Crystal 2, Small (less than 1 g) adiabatic calorimetry	144.59 J/K/mol
86.34 K, Crystal 1, Small (less than 1 g) adiabatic calorimetry	139.51 J/K/mol
87.92 K, Crystal 1, Small (less than 1 g) adiabatic calorimetry	141.49 J/K/mol
88.19 K, Crystal 1, Small (less than 1 g) adiabatic calorimetry	141.58 J/K/mol
88.32 K, Crystal 2, Small (less than 1 g) adiabatic calorimetry	147.21 J/K/mol
89.5 K, Crystal 1, Small (less than 1 g) adiabatic calorimetry	143.41 J/K/mol
90 K, Crystal 1, Vacuum adiabatic calorimetry	143.78 J/K/mol
90 K, Crystal 2, Vacuum adiabatic calorimetry	149.41 J/K/mol
90.38 K, Crystal 2, Small (less than 1 g) adiabatic calorimetry	149.91 J/K/mol
90.49 K, Crystal 1, Small (less than 1 g) adiabatic calorimetry	144.38 J/K/mol
91.1 K, Crystal 1, Small (less than 1 g) adiabatic calorimetry	145.38 J/K/mol
92.46 K, Crystal 2, Small (less than 1 g) adiabatic calorimetry	152.54 J/K/mol
92.69 K, Crystal 1, Small (less than 1 g) adiabatic calorimetry	147.26 J/K/mol
92.79 K, Crystal 1, Small (less than 1 g) adiabatic calorimetry	147.14 J/K/mol
94.3 K, Crystal 1, Small (less than 1 g) adiabatic calorimetry	149.22 J/K/mol
94.53 K, Crystal 2, Small (less than 1 g) adiabatic calorimetry	155.21 J/K/mol
95.09 K, Crystal 1, Small (less than 1 g) adiabatic calorimetry	149.9 J/K/mol
95.91 K, Crystal 1, Small (less than 1 g) adiabatic calorimetry	151.12 J/K/mol
96.62 K, Crystal 2, Small (less than 1 g) adiabatic calorimetry	157.81 J/K/mol
97.38 K, Crystal 1, Small (less than 1 g) adiabatic calorimetry	152.62 J/K/mol
97.53 K, Crystal 1, Small (less than 1 g) adiabatic calorimetry	153.02 J/K/mol
98.72 K, Crystal 2, Small (less than 1 g) adiabatic calorimetry	160.47 J/K/mol
99.17 K, Crystal 1, Small (less than 1 g) adiabatic calorimetry	154.93 J/K/mol
99.68 K, Crystal 1, Small (less than 1 g) adiabatic calorimetry	155.3 J/K/mol
100 K, Crystal 1, Vacuum adiabatic calorimetry	155.66 J/K/mol
100 K, Crystal 2, Vacuum adiabatic calorimetry	162.05 J/K/mol
100.8 K, Crystal 1, Small (less than 1 g) adiabatic calorimetry	156.84 J/K/mol
100.83 K, Crystal 2, Small (less than 1 g) adiabatic calorimetry	163.07 J/K/mol
101.98 K, Crystal 1, Small (less than 1 g) adiabatic calorimetry	157.93 J/K/mol
102.45 K, Crystal 1, Small (less than 1 g) adiabatic calorimetry	158.74 J/K/mol
102.94 K, Crystal 2, Small (less than 1 g) adiabatic calorimetry	165.76 J/K/mol
104.1 K, Crystal 1, Small (less than 1 g) adiabatic calorimetry	160.69 J/K/mol
104.29 K, Crystal 1, Small (less than 1 g) adiabatic calorimetry	160.64 J/K/mol
105.07 K, Crystal 2, Small (less than 1 g) adiabatic calorimetry	168.36 J/K/mol
105.76 K, Crystal 1, Small (less than 1 g) adiabatic calorimetry	162.57 J/K/mol
106.6 K, Crystal 1, Small (less than 1 g) adiabatic calorimetry	163.27 J/K/mol
107.21 K, Crystal 2, Small (less than 1 g) adiabatic calorimetry	170.99 J/K/mol
107.43 K, Crystal 1, Small (less than 1 g) adiabatic calorimetry	164.48 J/K/mol
108.92 K, Crystal 1, Small (less than 1 g) adiabatic calorimetry	165.88 J/K/mol
109.11 K, Crystal 1, Small (less than 1 g) adiabatic calorimetry	166.36 J/K/mol
109.36 K, Crystal 2, Small (less than 1 g) adiabatic calorimetry	173.6 J/K/mol
110 K, Crystal 1, Vacuum adiabatic calorimetry	167.09 J/K/mol
110 K, Crystal 2, Vacuum adiabatic calorimetry	174.41 J/K/mol
110.8 K, Crystal 1, Small (less than 1 g) adiabatic calorimetry	168.33 J/K/mol
111.24 K, Crystal 1, Small (less than 1 g) adiabatic calorimetry	168.49 J/K/mol
111.51 K, Crystal 2, Small (less than 1 g) adiabatic calorimetry	176.31 J/K/mol
112.5 K, Crystal 1, Small (less than 1 g) adiabatic calorimetry	170.17 J/K/mol
113.57 K, Crystal 1, Small (less than 1 g) adiabatic calorimetry	171.15 J/K/mol
113.68 K, Crystal 2, Small (less than 1 g) adiabatic calorimetry	178.98 J/K/mol
114.2 K, Crystal 1, Small (less than 1 g) adiabatic calorimetry	172.16 J/K/mol
115.87 K, Crystal 2, Small (less than 1 g) adiabatic calorimetry	181.77 J/K/mol
115.91 K, Crystal 1, Small (less than 1 g) adiabatic calorimetry	173.74 J/K/mol and 174.07 J/K/mol
117.64 K, Crystal 1, Small (less than 1 g) adiabatic calorimetry	175.95 J/K/mol
118.06 K, Crystal 2, Small (less than 1 g) adiabatic calorimetry	184.44 J/K/mol
118.26 K, Crystal 1, Small (less than 1 g) adiabatic calorimetry	176.37 J/K/mol
119.36 K, Crystal 1, Small (less than 1 g) adiabatic calorimetry	177.93 J/K/mol
120 K, Crystal 1, Vacuum adiabatic calorimetry	178.29 J/K/mol
120 K, Crystal 2, Vacuum adiabatic calorimetry	186.87 J/K/mol
120.27 K, Crystal 2, Small (less than 1 g) adiabatic calorimetry	187.2 J/K/mol
120.61 K, Crystal 1, Small (less than 1 g) adiabatic calorimetry	178.97 J/K/mol
121.1 K, Crystal 1, Small (less than 1 g) adiabatic calorimetry	179.82 J/K/mol
122.48 K, Crystal 2, Small (less than 1 g) adiabatic calorimetry	189.96 J/K/mol
122.85 K, Crystal 1, Small (less than 1 g) adiabatic calorimetry	181.85 J/K/mol
122.98 K, Crystal 1, Small (less than 1 g) adiabatic calorimetry	181.61 J/K/mol
124.61 K, Crystal 1, Small (less than 1 g) adiabatic calorimetry	182.88 J/K/mol
124.71 K, Crystal 2, Small (less than 1 g) adiabatic calorimetry	192.76 J/K/mol
125.35 K, Crystal 1, Small (less than 1 g) adiabatic calorimetry	184.23 J/K/mol
126.37 K, Crystal 1, Small (less than 1 g) adiabatic calorimetry	185.75 J/K/mol
126.95 K, Crystal 2, Small (less than 1 g) adiabatic calorimetry	195.55 J/K/mol
127.73 K, Crystal 1, Small (less than 1 g) adiabatic calorimetry	186.92 J/K/mol
128.14 K, Crystal 1, Small (less than 1 g) adiabatic calorimetry	187.6 J/K/mol
129.2 K, Crystal 2, Small (less than 1 g) adiabatic calorimetry	198.34 J/K/mol
129.93 K, Crystal 1, Small (less than 1 g) adiabatic calorimetry	189.59 J/K/mol
130 K, Crystal 1, Vacuum adiabatic calorimetry	189.39 J/K/mol
130 K, Crystal 2, Vacuum adiabatic calorimetry	199.38 J/K/mol
130.12 K, Crystal 1, Small (less than 1 g) adiabatic calorimetry	189.53 J/K/mol
131.47 K, Crystal 2, Small (less than 1 g) adiabatic calorimetry	201.3 J/K/mol
131.72 K, Crystal 1, Small (less than 1 g) adiabatic calorimetry	191.62 J/K/mol
132.53 K, Crystal 1, Small (less than 1 g) adiabatic calorimetry	192.14 J/K/mol
133.51 K, Crystal 1, Small (less than 1 g) adiabatic calorimetry	193.32 J/K/mol
133.74 K, Crystal 2, Small (less than 1 g) adiabatic calorimetry	204.25 J/K/mol
134.94 K, Crystal 1, Small (less than 1 g) adiabatic calorimetry	194.79 J/K/mol
135.4 K, Crystal 1, Small (less than 1 g) adiabatic calorimetry	195.42 J/K/mol
136.03 K, Crystal 2, Small (less than 1 g) adiabatic calorimetry	207.21 J/K/mol
137.37 K, Crystal 1, Small (less than 1 g) adiabatic calorimetry	197.39 J/K/mol and 197.54 J/K/mol
138.33 K, Crystal 2, Small (less than 1 g) adiabatic calorimetry	210.2 J/K/mol
139.32 K, Crystal 1, Small (less than 1 g) adiabatic calorimetry	199.71 J/K/mol
139.8 K, Crystal 1, Small (less than 1 g) adiabatic calorimetry	200.05 J/K/mol
140 K, Crystal 1, Vacuum adiabatic calorimetry	200.27 J/K/mol
140 K, Crystal 2, Vacuum adiabatic calorimetry	212.43 J/K/mol
140.64 K, Crystal 2, Small (less than 1 g) adiabatic calorimetry	213.3 J/K/mol

Reference: the NIST ThermoML archive (doi:10.1016/j.jct.2012.03.031)
